Measurements from patent US20060204443A1, “Methods for tumor treatment using dendrimer conjugates” (The Government of the USA as represented by the Secretary …, priority 2005, published 2006).
Where “and” joins values, the source holds several entries; their conditions need not be identical. Equal values may be shown once. Entries after “also recorded” stand apart in the source; their conditions may differ.

Key:
[1] = system: lymphatic drainage from tumor-bearing mammary glands; test: MR mammo-lymphangiography in breast tumor models (BALB-neuT, PT-18 xenograft); format: in vivo, mice
From the text: The breast-tumor bearing mice were thirty one week-old BALB-neuT mice (n=3) transgenic for the rat HER-2/neu (Erb B2) oncogene under the control of the mouse mammary tumor virus promotor (MMTV). […] BALB-neuT mice were used because of their spontaneous development of bilateral breast cancers and lymph node metastases. Heterozygous female BALB-neuT mice (BALB/c background) develop mammary gland lobule hyperplasia at 5-6 weeks of age that progresses to atypical hyperplasia by 8-9 weeks, followed by in situ carcinoma by 14 weeks, becoming invasive carcinoma usually by 21 week of age. Rovero et al., J. Immunol.; 165:5133-42, 2000. Most metastatic lymph nodes from the mouse mammary pad localize in the neck, lateral thoracic, or axillary region.
Tumor xenografts of PT-18, a murine mast cell line, were introduced into the left mammary pad in athymic nu/nu mice. When 10^7 PT-18 cells were injected in the left mammary pad of 10 athymic nu/nu mice, six mice developed tumor masses in the left axillary lymph nodes within three weeks.
Mice were anesthetized with 1.15 mg sodium pentobarbital (Dainabot, Osaka, Japan), and then injected with 0.15-0.24 μmol Gd/5-8 μL of the PAMAM-G6 contrast agent into normal mammary glands or mammary tissue surrounding a tumor (peritumorally). Dynamic micro-MR images were obtained using a 1.5-Tesla superconductive magnet unit (Signa LX, General Electric Medical System, Milwaukee, Wis.) with a birdcage type coil of 3 cm diameter fixed by a custom made coil holder. Single and double “breast coils” used for imaging breasts in humans are commercially available, for example, from GE Medical Systems (Milwaukee, Wis.) and are routinely available in outpatient MRI centers. The mice were wrapped with gauze to stabilize their body temperature and were placed at the center of the coils. […]

[2] = system: Draining Lymph Nodes (LNs) from the Normal Breast Tissue; test: Dynamic micro-MR mammo-lymphangiography after injection into normal mammary gland (Example 1); format: in vivo, mice
Protocol: Mice were anesthetized with 1.15 mg sodium pentobarbital (Dainabot, Osaka, Japan), and then injected with 0.15-0.24 μmol Gd/5-8 μL of the PAMAM-G6 contrast agent into normal mammary glands or mammary tissue surrounding a tumor (peritumorally). Dynamic micro-MR images were obtained using a 1.5-Tesla superconductive magnet unit (Signa LX, General Electric Medical System, Milwaukee, Wis.) with a birdcage type coil of 3 cm diameter fixed by a custom made coil holder. Single and double “breast coils” used for imaging breasts in humans are commercially available, for example, from GE Medical Systems (Milwaukee, Wis.) and are routinely available in outpatient MRI centers. The mice were wrapped with gauze to stabilize their body temperature and were placed at the center of the coils.
In order to evaluate the lymphatic drainage from the normal mammary gland of either Balb/c mice (n=5) or athymic nu/nu mice (n=5), 3D-fast spoiled gradient echo (3D-fastSPGR (efgre3d package; Signa Horizon, GE); repetition time/echo time 19.2/7.2 msec; inversion time 47 msec; 31.2 kHz, flip angle 30°, 4 excitations; 36 slice encoding steps; scan time 4 min 49 seconds) with chemical shift fat-suppression was used 6, 12, 18, 24, 30, 36, 42, and 48 min after injection of the contrast agent. The coronal images were reconstructed with 0.6-mm section thickness every 0.3-mm. The field of view was 8×4 cm and the size of the matrix was 512×256. The slice data were processed into 3D images using the maximum intensity projection (MIP) method with the same window and level (window 3500 and level 2100) (Advantage Windows, General Electric Medical System). After imaging, the mice were sacrificed by carbon dioxide inhalation.
Athymic nu/nu mice (n=4) were anesthetized and injected with 0.15 μmol Gd of GPDM into the mammary gland, and images were taken 12, 24, and 36 min after injection. Following these three images, these mice were subsequently injected with 0.15 μmol Gd of PAMAM-G6 contrast agent in the mammary gland, and images were taken at 12 and 24 min post-injection of the PAMAM-G6 contrast agent (at 48 and 60 min post-injection of GPDM).

[3] = in vivo
[4] = system: axillary lymph nodes and their lymphatic vessels; test: Dynamic 3D-MR lymphangiography, effect of contrast agent size (Example 4); format: in vivo, athymic nu/nu mice; details: for Signal intensity within the axillary lymph node (enhancement ratio, lymph node / adjacent muscle): 0.15 μmolGd/5 μL
Protocol: Mice were anesthetized with 1.15 mg sodium pentobarbital (Dainabot, Osaka, Japan) by intraperitoneal injection. Then 0.15 μmolGd/5 μL of all nano-size contrast agents or 0.45 μmolGd/5 μL of Gd-[DTPA]-dimeglumine were injected into normal mammary glands or mammary tissue surrounding a tumor. Dynamic MR images were obtained using a 1.5-Tesla superconductive magnet unit (Signa LX, General Electric Medical System, Milwaukee, Wis.) with a birdcage type coil of 3 cm diameter fixed by a custom-made coil holder. The mice were wrapped with gauze to conserve their body temperature and were placed at the center of the coils.
In order to evaluate the effect of contrast agent molecular size on the ability to visualize the lymphatics and lymph nodes of athymic nu/nu mice, thirty five non-tumor bearing nu/nu mice were divided into seven groups (n=5). The mice were evaluated with 3D-fast spoiled gradient echo (3D-fastSPGR (efgre3d package; Signa Horizon, GE); repetition time/echo time 19.2/7.2 msec; inversion time 47 msec; bandwidth 31.2 kHz, flip angle 30°, 4 excitations; 36 slice encoding steps; scan time 4 minutes 49 seconds) with chemical shift fat-suppression at 6, 12, 18, 24, 30, and 36 minutes post-injection of each contrast agent. The coronal images were reconstructed with 0.6-mm section thickness every 0.3-mm. The field of view was 8×4 cm and the size of the matrix was 512×256. The slice data were processed into 3D images using the maximum intensity projection (MIP) method with the same window and level (window 3500 and level 2100) (Advantage Windows, General Electric Medical System). The enhancement ratio was calculated by taking the average signal intensity in the axillary lymph node and dividing it by the signal intensity in the adjacent muscle.

[5] = PT-18 model, peritumoral injection

In the case of “PAMAM-G6D-(Gd-1B4M)256 dendrimer conjugate”, the “Imaging of enlarged metastatic lymph nodes and dilated lymphatic vessels” value ([1]; BALB-neuT model) is reported as “clearly imaged”, the “Enhancement of axillary lymph node tissue with metastatic tumor cells” value [1, 5] is reported as “did not shown enhancement” and the “Lymphatic vessel flowing into the lymph node with a metastatic tumor” value [1, 5] is reported as “dilated and showed enhancement”. The “Visualized LNs/Total Examined LNs, Axillary LN” value ([2]; 6 min after injection) was “visualized at the initial (6 min) time point in all 10 mice and 10/10”, the “Visualized LNs/Total Examined LNs, Lateral thoracic LN” value ([2]; 6 min after injection) was 0/10 and the “Visualized LNs/Total Examined LNs, Superficial cervical LN” value ([2]; 6 min after injection) was 1/10. For the same substance, the “Visualized LNs/Total Examined LNs, Axillary LN” value ([2]; 12 min after injection) was 10/10, the “Visualized LNs/Total Examined LNs, Lateral thoracic LN” value ([2]; 12 min after injection) was 1/10 and the “Visualized LNs/Total Examined LNs, Superficial cervical LN” value ([2]; 12 min after injection) was 1/10. The “Visualized LNs/Total Examined LNs, Axillary LN” value ([2]; 18 min after injection) was 10/10, the “Visualized LNs/Total Examined LNs, Lateral thoracic LN” value ([2]; 18 min after injection) was 2/10 and the “Visualized LNs/Total Examined LNs, Superficial cervical LN” value ([2]; 18 min after injection) was 1/10. The “Visualized LNs/Total Examined LNs, Axillary LN” value ([2]; 24 min after injection) was 10/10, the “Visualized LNs/Total Examined LNs, Lateral thoracic LN” value ([2]; 24 min after injection) was 4/10 and the “Visualized LNs/Total Examined LNs, Superficial cervical LN” value ([2]; 24 min after injection) was 2/10. For the same substance, the “Visualized LNs/Total Examined LNs, Axillary LN” value ([2]; 30 min after injection) was 10/10, the “Visualized LNs/Total Examined LNs, Lateral thoracic LN” value ([2]; 30 min after injection) was 4/10 and the “Visualized LNs/Total Examined LNs, Superficial cervical LN” value ([2]; 30 min after injection) was 2/10. For the same substance, the “Visualized LNs/Total Examined LNs, Axillary LN” value ([2]; 36 min after injection) was 10/10, the “Visualized LNs/Total Examined LNs, Lateral thoracic LN” value ([2]; 36 min after injection) was 5/10 and the “Visualized LNs/Total Examined LNs, Superficial cervical LN” value ([2]; 36 min after injection) was 3/10. For the same substance, the “Visualized LNs/Total Examined LNs, Axillary LN” value ([2]; 42 min after injection) was 10/10, the “Visualized LNs/Total Examined LNs, Lateral thoracic LN” value ([2]; 42 min after injection) was 6/10 and the “Visualized LNs/Total Examined LNs, Superficial cervical LN” value ([2]; 42 min after injection) was 3/10. For the same substance, the “Visualized LNs/Total Examined LNs, Axillary LN” value ([2]; 48 min after injection) was 10/10, the “Visualized LNs/Total Examined LNs, Lateral thoracic LN” value ([2]; 48 min after injection) was 6/10 and the “Visualized LNs/Total Examined LNs, Superficial cervical LN” value ([2]; 48 min after injection) was 3/10. For the same substance, the “Visualization of draining lymph nodes and lymphatic vessels (FIG. 5)” value ([2]; athymic nu/nu mice, 0.15 μmol Gd into the mammary gland, GPDM imaged at 12, 24, 36 min, then PAMAM-G6) was “clearly visualized”, the “Survival in the lymph system” value [3] was “intermediate survival period in the lymph system” and the “Visualization of axillary lymph nodes and their lymphatic vessels” value ([4]; 6-36 minutes post-injection into mammary gland, listed as G6) was “earliest and most intense opacification of the sentinel lymph nodes; also recorded: visualized at all time points in all 10 mice”. For the same substance, the “Signal intensity within the axillary lymph node (enhancement ratio, lymph node / adjacent muscle)” value ([4]; 6 minutes post-injection) was 2.6±0.2 and the “Signal intensity within the axillary lymph node (enhancement ratio, lymph node / adjacent muscle)” value ([4]; 12 minutes post-injection) was 2.9±0.3.
